US10906897B2, “Microbiocidal heterobicyclic derivatives” (priority 2015, dated 2021)

Tests used:
[1] = tested on: Botryotinia fuckeliana (Botrytis cinerea); experiment: Botryotinia fuckeliana (Botrytis cinerea) / liquid culture (Gray mould); format: cell-based; settings: growth inhibition photometrically 3-4 days after application, compared to untreated control
[2] = tested on: Glomerella lagenarium (Colletotrichum lagenarium); experiment: Glomerella lagenarium (Colletotrichum lagenarium) / liquid culture (Anthracnose); format: cell-based; settings: Colletotrichum orbiculare, growth inhibition photometrically 3-4 days after application, compared to untreated control
Fusarium culmorum = experiment: microbe, parasite or virus in culture; format: cell-based; settings: read-out: control of Fusarium culmorum
Gaeumannomyces graminis = Gaeumannomyces graminis / liquid culture (Take-all of cereals); format: cell-based; settings: growth inhibition photometrically 4-5 days after application, compared to untreated control
[3] = tested on: Monographella nivalis (Microdochium nivale); experiment: Monographella nivalis (Microdochium nivale) / liquid culture (foot rot cereals); format: cell-based; settings: 96 h, growth inhibition photometrically 4-5 days after application, compared to untreated control
[4] = tested on: Magnaporthe grisea (Pyricularia oryzae); experiment: whole plant or invertebrate; format: in vivo; settings: foliar, read-out: control of Magnaporthe grisea
[5] = tested on: Magnaporthe grisea (Pyricularia oryzae); experiment: microbe, parasite or virus in culture; format: cell-based; settings: read-out: control of Magnaporthe grisea
Sclerotinia sclerotiorum = Sclerotinia sclerotiorum / liquid culture (cottony rot); settings: read-out: control of Sclerotinia sclerotiorum
Protocol: Sclerotinia sclerotiorum/Liquid Culture (Cottony Rot)
Mycelia fragments of a newly grown liquid culture of the fungus are directly mixed into 5 nutrient broth (Vogels broth). After placing a (DMSO) solution of test compound into a microtiter plate (96-well format) the nutrient broth containing the fungal material is added. The test plates are incubated at 24° C. and the inhibition of growth is determined photometrically 3-4 days after application.

[6] = tested on: Mycosphaerella graminicola (Septoria tritici); experiment: Mycosphaerella graminicola (Septoria tritici) / liquid culture (Septoria blotch); format: cell-based; settings: Zymoseptoria tritici, growth inhibition photometrically 4-5 days after application, compared to untreated control

SMILES	inhibition of growth at 20 ppm [1] [%]	inhibition of growth at 20 ppm [2] [%]	inhibition of growth at 20 ppm (Fusarium culmorum) [%]	inhibition of growth at 20 ppm (Gaeumannomyces graminis) [%]	inhibition of growth at 20 ppm [3] [%]	pest or weed control at 200 ppm [4] [%]	inhibition of growth at 60 ppm [5] [%]	melting point [°C]	inhibition of growth at 20 ppm (Sclerotinia sclerotiorum) [%]	inhibition of growth at 20 ppm [6] [%]
Cc1c(Cl)ccc2c(C3=NC(C)(C)C(F)(F)c4ccccc43)cnn12 [Compound E-91, 1-(6-chloro-7-methyl-pyrazolo[1,5-a]pyridin-3-yl)-4,4-difluoro-3,3-dimethyl-isoquinoline]	≥ 80	≥ 80	≥ 80	≥ 80	≥ 80	≥ 50	≥ 80	166 to 168	≥ 80	–
CC1(C)N=C(c2cnn3cc(Br)ccc23)c2ccccc2C1=O [Compound E-82, 1-(6-bromopyrazolo[1,5-a]pyridin-3-yl)-3,3-dimethyl-isoquinolin-4-one]	≥ 80	≥ 80	≥ 80	≥ 80	≥ 80	–	≥ 80	147 to 149	≥ 80	≥ 80
Cc1c(F)ccc2c(C3=NC(C)(C)C(F)(F)c4ccccc43)cnn12 [Compound E-88, 4,4-difluoro-1-(6-fluoro-7-methyl-pyrazolo[1,5-a]pyridin-3-yl)-3,3-dimethyl-isoquinoline]	≥ 80	≥ 80	≥ 80	≥ 80	≥ 80	≥ 50	≥ 80	115 to 118	≥ 80	≥ 80
Cc1cccn2ncc(C3=NC(C)(C)C(F)(F)c4ccccc43)c12 [Compound E-69, 4,4-difluoro-3,3-dimethyl-1-(4-methylpyrazolo[1,5-a]pyridin-3-yl)isoquinoline]	≥ 80	≥ 80	≥ 80	≥ 80	≥ 80	≥ 50	≥ 80	113 to 114	≥ 80	–
CC1(C)N=C(c2cnn3c(Cl)cccc23)c2ccccc2C1(F)F [Compound E-93, 1-(7-chloropyrazolo[1,5-a]pyridin-3-yl)-4,4-difluoro-3,3-dimethyl-isoquinoline]	≥ 80	≥ 80	≥ 80	–	≥ 80	≥ 50	≥ 80	129 to 132	≥ 80	≥ 80
CC1(C)N=C(c2cnn3cc(Br)ccc23)c2ccccc2C1(F)F [Compound E-81, 1-(6-bromopyrazolo[1,5-a]pyridin-3-yl)-4,4-difluoro-3,3-dimethyl-isoquinoline]	≥ 80	≥ 80	≥ 80	≥ 80	≥ 80	≥ 50	≥ 80	127 to 129	≥ 80	≥ 80
Cc1ccc2c(C3=NC(C)(C)C(F)(F)c4ccccc43)cnn2c1 [Compound E-83, 4,4-difluoro-3,3-dimethyl-1-(6-methylpyrazolo[1,5-a]pyridin-3-yl)isoquinoline]	≥ 80	≥ 80	≥ 80	≥ 80	≥ 80	≥ 50	≥ 80	105 to 107	≥ 80	≥ 80
CC1(C)N=C(c2cnn3ccccc23)c2ccccc2C1(F)F [Compound E-80, 4,4-difluoro-3,3-dimethyl-1-pyrazolo[1,5-a]pyridin-3-yl-isoquinoline]	≥ 80	≥ 80	≥ 80	≥ 80	≥ 80	–	≥ 80	78 to 82	≥ 80	≥ 80
CCc1ccc2c(C3=NC(C)(C)C(F)(F)c4ccccc43)cnn2c1 [Compound E-86, 1-(6-ethylpyrazolo[1,5-a]pyridin-3-yl)-4,4-difluoro-3,3-dimethyl-isoquinoline]	≥ 80	≥ 80	≥ 80	≥ 80	–	≥ 50	≥ 80	–	≥ 80	≥ 80
CC1(C)N=C(c2cnc3c(C4CC4)cccn23)c2cccc(F)c2C1(C)C [Compound E-22, 1-(8-cyclopropylimidazo[1,2-a]pyridin-3-yl)-5-fluoro-3,3,4,4-tetramethyl-isoquinoline]	≥ 80	≥ 80	–	–	≥ 80	–	–	–	–	≥ 80
Cc1cccn2c(C3=NC(C)(C)C(F)(F)c4c(F)cccc43)cnc12 [Compound E-39, 4,4,5-trifluoro-3,3-dimethyl-1-(8-methylimidazo[1,2-a]pyridin-3-yl)isoquinoline]	≥ 80	≥ 80	≥ 80	≥ 80	≥ 80	≥ 50	–	–	–	≥ 80
CC1(C)N=C(c2cnn3cc(Cl)ccc23)c2ccccc2C1(F)F [Compound E-87, 1-(6-chloropyrazolo[1,5-a]pyridin-3-yl)-4,4-difluoro-3,3-dimethyl-isoquinoline]	≥ 80	≥ 80	≥ 80	≥ 80	–	≥ 50	≥ 80	113 to 118	≥ 80	≥ 80
CC1(C)N=C(c2cnc3cc(I)ccn23)c2cccc(F)c2C1(C)C [Compound E-44, 5-fluoro-1-(7-iodoimidazo[1,2-a]pyridin-3-yl)-3,3,4,4-tetramethyl-isoquinoline]	≥ 80	≥ 80	≥ 80	–	≥ 80	–	–	–	–	≥ 80
